Assay: Solubility tests in anhydrous hexane (stirred 30 minutes at room temperature, filtered, solvent removed)
Type: physicochemical
Method: (§1) This solution was stirred for 30 minutes at room temperature. The contents were then filtered through a buchner filter funnel with a frit having a 4-5.5 micron size. The solvent was then removed en vacuo.
as §1

Work on `CC(=Nc1c(C)cc(C)cc1Cl)c1cccc(C(C)=Nc2c(C)cc(C)cc2Cl)n1.[Cl][Fe][Cl]` [2,6-bis-[1-(2-chloro-4,6-dimethylphenylimino)ethyl]pyridine iron dichloride] yielded a calculated solubility (anhydrous hexane, stirred 30 minutes at room temperature, filtered through 4-5.5 micron frit) of 0.0 g/g hexane.

With “(E)-N-(2-chloro-4,6-dimethylphenyl)-1-(6-((E)-1-(mesitylimino)ethyl)pyridin-2-yl)ethan-1-imine iron-silylneopentyl [Catalyst 1]” the “solubility in hydrophobic (nonpolar) solvents compared to the Comparative Catalyst” value was “significantly improved solubility”.
